Results from ChEMBL document CHEMBL1201862, “PubChem BioAssay data set” (2004).
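Tested at 5 concentrations; 48 h exposure; 96-well plates; endpoints linearly interpolated, else capped at highest concentration. GI50 is the concentration that inhibits growth by half.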 Activity calls are given as the source filed them. No stated cut-off is given here; in the data, active = GI50 up to about 1.1 µM and inactive = higher.

How the values were obtained:
Assay in all cases: NCI anticancer screen, dose series, 48 h
NCI/ADR-RES = tested on: NCI/ADR-RES
SK-MEL-5 = tested on: SK-MEL-5
MOLT-4 = tested on: MOLT-4
OVCAR-8 = tested on: OVCAR-8
CCRF-CEM = tested on: CCRF-CEM
HCC 2998 = tested on: HCC 2998
Malme-3M = tested on: Malme-3M
PC-3 = tested on: PC-3
SR = tested on: SR
NCI-H23 = tested on: NCI-H23
HOP-92 = tested on: HOP-92
UO-31 = tested on: UO-31
SF-268 = tested on: SF-268
NCI-H226 = tested on: NCI-H226
Hs-578T = tested on: Hs-578T
DU-145 = tested on: DU-145
SK-MEL-28 = tested on: SK-MEL-28
M14 = tested on: M14
MDA-N = tested on: MDA-N
A549 = tested on: A549

Row | Compound | GI50 (NCI/ADR-RES) | GI50 (SK-MEL-5) | GI50 (MOLT-4) | GI50 (OVCAR-8) | GI50 (CCRF-CEM) | GI50 (HCC 2998) | GI50 (Malme-3M) | GI50 (PC-3) | GI50 (SR) | GI50 (NCI-H23) | GI50 (HOP-92) | GI50 (UO-31) | GI50 (SF-268) | GI50 (NCI-H226) | GI50 (Hs-578T) | GI50 (DU-145) | GI50 (SK-MEL-28) | GI50 (M14) | GI50 (MDA-N) | GI50 (A549)
1 | COC(C(=O)C(O)C(C)O)C1CC2C=C3C=C(OC4CC(OC5CC(O)C(OC)C(C)O5)C(OC(C)=O)C(C)O4)C(C)C(O)=C3C(O)=C2C(=O)C1OC1CC(OC2CC(OC3CC(C)(O)C(OC(=O)C(C)C)C(C)O3)C(O)C(C)O2)C(O)C(C)O1 (stereo not given) | < 0.01 µM (active) | < 0.01 µM (active) | < 0.01 µM (active) | < 0.01 µM (active) | < 0.01 µM (active) | < 0.01 µM (active) | < 0.01 µM (active) | < 0.01 µM (active) | < 0.01 µM (active) | < 0.01 µM (active) | < 0.01 µM (active) | < 0.01 µM (active) | < 0.01 µM (active) | < 0.01 µM (active) | < 0.01 µM (active) | < 0.01 µM (active) | < 0.01 µM (active) | < 0.01 µM (active) | < 0.01 µM (active) | < 0.01 µM (active)
2 | C=C1CC2(CC(c3ccccc3C)OC(c3ccccc3C)C2)OC1=O (stereo not given) | 3.48 µM (inactive) | 1.86 µM (inactive) | 2.77 µM (inactive) | 2.19 µM (inactive) | 2.04 µM (inactive) | 2.25 µM (inactive) | 1.71 µM (inactive) | 2.21 µM (inactive) | 2.15 µM (inactive) | 1.96 µM (inactive) | 1.76 µM (inactive) | 4.08 µM (inactive) | 1.83 µM (inactive) | 7.78 µM (inactive) | 2.24 µM (inactive) | 12.1 µM (inactive) | 1.82 µM (inactive) | 1.59 µM (inactive) | 1.75 µM (inactive) | 8.47 µM (inactive)
3 | NC1CCCCC1.O=C(CP(=O)(O)O)NC(CC(=O)OCc1ccccc1)C(=O)OCc1ccccc1 (stereo not given) | > 100 µM (inactive) | > 100 µM (inactive) | > 100 µM (inactive) | > 100 µM (inactive) | > 100 µM (inactive) | > 100 µM (inactive) | > 100 µM (inactive) | 24.2 µM (inactive) | > 100 µM (inactive) | > 100 µM (inactive) | > 100 µM (inactive) | > 100 µM (inactive) | > 100 µM (inactive) | > 100 µM (inactive) | > 100 µM (inactive) | > 100 µM (inactive) | > 100 µM (inactive) | > 100 µM (inactive) | > 100 µM (inactive) | > 100 µM (inactive)
4 | NC(=O)c1ncn(C2C=CC(CP(=O)(O)O)C2)c1N (stereo not given) | > 100 µM (inactive) | > 100 µM (inactive) | > 100 µM (inactive) | > 100 µM (inactive) | > 100 µM (inactive) | > 100 µM (inactive) | > 100 µM (inactive) | > 100 µM (inactive) | > 100 µM (inactive) | > 100 µM (inactive) | > 100 µM (inactive) | > 100 µM (inactive) | > 100 µM (inactive) | > 100 µM (inactive) | > 100 µM (inactive) | > 100 µM (inactive) | > 100 µM (inactive) | > 100 µM (inactive) | > 100 µM (inactive) | > 100 µM (inactive)
5 | CCCC(=O)NC(Nc1ccc(S(=O)(=O)Nc2nc(C)cc(C)n2)cc1)(C(F)(F)F)C(F)(F)F | > 100 µM (inactive) | > 100 µM (inactive) | > 100 µM (inactive) | > 100 µM (inactive) | > 100 µM (inactive) | > 100 µM (inactive) | > 100 µM (inactive) | > 100 µM (inactive) | > 100 µM (inactive) | > 100 µM (inactive) | > 100 µM (inactive) | > 100 µM (inactive) | > 100 µM (inactive) | > 100 µM (inactive) | > 100 µM (inactive) | > 100 µM (inactive) | > 100 µM (inactive) | > 100 µM (inactive) | > 100 µM (inactive) | > 100 µM (inactive)
6 | N#CC1(C2SCC[S+]2[O-])C2=C(C(=O)c3ccccc3C2=O)N2CCCC21 (stereo not given) | 3.12 µM (inactive) | 0.364 µM (active) | 3.06 µM (inactive) | 2.18 µM (inactive) | 2.94 µM (inactive) | 4.85 µM (inactive) | 0.381 µM (active) | 1.88 µM (inactive) | 0.935 µM (active) | 1.11 µM (active) | 3.85 µM (inactive) | 4.68 µM (inactive) | 3.01 µM (inactive) | 3.66 µM (inactive) | 3.46 µM (inactive) | 2.18 µM (inactive) | 2.85 µM (inactive) | 1.17 µM (inactive) | 0.605 µM (active) | 2.1 µM (inactive)
7 | CCc1nc(N)nc(N)c1-c1ccc(N(C)Cc2ccccc2)c([N+](=O)[O-])c1 | 0.184 µM (active) | 0.022 µM (active) | 0.059 µM (active) | 0.0466 µM (active) | 0.0237 µM (active) | 0.345 µM (active) | 2.22 µM (inactive) | 0.0557 µM (active) | 0.0187 µM (active) | 0.0708 µM (active) | 0.962 µM (active) | 0.458 µM (active) | 0.303 µM (active) | 3.31 µM (inactive) | 10.2 µM (inactive) | 0.215 µM (active) | 4.79 µM (inactive) | 0.064 µM (active) | 0.0243 µM (active) | < 0.01 µM (active)
